Our source for the Kd and Bmax values is PMC12860872, “Preclinical evaluation of DOTAGA.Glu.(FAPI)2 and DO3A.Glu.(FAPI)2 as theranostics with human dosimetry extrapolation to lutetium-177 and terbium-161 analogs” (European Journal of Nuclear Medicine and Molecular Imaging, 2025).

The target in this test is T1, FAP (Homo sapiens, UniProt Q12884).
T1 construct: the CAF cells overexpressing FAP were seeded at a density of 0.8-1 million cells per well; host or cells: hTERT PF179T prostate cancer-associated fibroblasts
T1 sequence (Q12884 1-760): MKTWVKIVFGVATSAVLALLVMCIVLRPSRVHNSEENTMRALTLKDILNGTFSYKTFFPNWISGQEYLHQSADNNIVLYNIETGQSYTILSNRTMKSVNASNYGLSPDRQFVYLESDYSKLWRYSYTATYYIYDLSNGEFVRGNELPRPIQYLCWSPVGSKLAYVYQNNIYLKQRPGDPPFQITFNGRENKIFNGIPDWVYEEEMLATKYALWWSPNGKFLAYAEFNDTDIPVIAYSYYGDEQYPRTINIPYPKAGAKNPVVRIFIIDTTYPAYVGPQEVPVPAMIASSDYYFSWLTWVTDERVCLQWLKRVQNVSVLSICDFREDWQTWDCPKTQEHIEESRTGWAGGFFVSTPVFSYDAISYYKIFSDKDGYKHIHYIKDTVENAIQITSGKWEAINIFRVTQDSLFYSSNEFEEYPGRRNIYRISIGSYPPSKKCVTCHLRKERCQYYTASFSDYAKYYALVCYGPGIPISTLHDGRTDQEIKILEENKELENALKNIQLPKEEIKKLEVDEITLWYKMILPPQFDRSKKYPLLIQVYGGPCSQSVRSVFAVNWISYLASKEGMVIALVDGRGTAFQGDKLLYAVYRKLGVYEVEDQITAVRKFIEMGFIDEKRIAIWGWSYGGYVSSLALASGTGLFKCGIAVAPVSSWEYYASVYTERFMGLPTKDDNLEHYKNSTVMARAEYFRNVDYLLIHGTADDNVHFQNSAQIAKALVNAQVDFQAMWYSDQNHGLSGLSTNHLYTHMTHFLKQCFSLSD
Description: Saturation binding on FAP+ CAFs. As to conditions: for Kd: 0.1 to 10 nM radioligand. The procedure:
For receptor saturation studies, FAP^+ CAFs were incubated with 0.1 to 10 nM of the radioligands. For internalization studies, approximately 2.5 pmol of the radioligands were added to CAFs followed by incubation for 15, 30, 60, 90, 120, 180 and 240 min for the ^68Ga-labeled or 30, 60, 120, 240 and 360 min for the ^177Lu-labeled radioligands at 37 °C, 5% CO2. For the externalization studies, approximately 2.5 pmol of the ^177Lu-labeled radioligands were added to CAFs followed by incubation for 2 h at 37 °C, 5% CO2. The amount of externalized activity was measured at 0, 10, 20, 30, 60, 120, 240, and 1440 min (Supplemental Data).
For receptor saturation analysis, the CAF cells overexpressing FAP were seeded at a density of 0.8-1 million cells per well in 6-well plates, pre-coated with BME (Cultrex Reduced Growth Factor Basement Membrane Extract, RGF BME, R&D System, Minneapolis, USA) to enhance cell attachment. The cells were incubated overnight with medium (EMEM supplemented and containing 10% FBS, 100 U/mL penicillin and 100 μg/mL streptomycin). The next day, the medium was removed and the cells were incubated for 30 minutes at 37 °C, with 0.8 mL of fresh medium. Afterwards, the plates were placed on ice for 30 minutes followed by incubation with increasing concentrations of ^68/natGa- and ^177/natLu-labelled DOTAGA.Glu.(FAPI)2 and DO3A.Glu.( FAPI)2 (0.1-10 nM final concentration in the wells). After the addition of the radioligands, the cells were incubated for 120 minutes at 4 °C. Non-specific binding was determined in the presence of UAMC1110 at a final concentration of 1 μM. After the completion of the incubation, the cells were washed twice with ice-cold PBS, followed by solubilization with 1 M NaOH. The cell-associated radioactivity was measured using a gamma-counter. Specific binding was plotted against the total molar concentration of the added radiotracer. The Kd values and the concentration of the radioligand required to saturate the receptors (Bmax) were determined by nonlinear regression using GraphPad (Prism 8 Graph Pad Software, San Diego, CA). For all the cell studies the values are normalized for 1x10^6 cells per well and all data are from two independent experiments with triplicates in each experiment.

Setting [1] is: listed as 177/natLu-DO3A.Glu.(FAPI)2.
The mark [2] stands for this setting: listed as 177/natLu-DOTAGA.Glu.(FAPI)2.

The structures appear in SMILES notation. Values joined by “and” are separate entries in the source; they are usually repeats but may differ in a detail not shown here. Equal entries are not always repeated.

The Kd is the equilibrium constant for the complex coming apart. Read a low Kd as a tighter complex. For the compound `N#C[C@@H]1CC(F)(F)CN1C(=O)CNC(=O)c1ccnc2ccc(OCCCCNC(=O)CC[C@H](NC(=O)CN3CCN(CC(=O)[O-])CCN(CC(=O)[O-])CCN(CC(=O)[O-])CC3)C(=O)NCCCCOc3ccc4nccc(C(=O)NCC(=O)N5CC(F)(F)C[C@H]5C#N)c4c3)cc12.[177Lu+3]` [[^177Lu]Lu-DO3A.Glu.(FAPI)2], under setting [1], the Kd was 700 pM and 720 pM; the Bmax was 0.4 ± 0.02 nM and 0.37 ± 0.02 nM.
Consider `N#C[C@@H]1CC(F)(F)CN1C(=O)CNC(=O)c1ccnc2ccc(OCCCCNC(=O)CC[C@H](NC(=O)CCC(C(=O)O)N3CCN(CC(=O)[O-])CCN(CC(=O)[O-])CCN(CC(=O)[O-])CC3)C(=O)NCCCCOc3ccc4nccc(C(=O)NCC(=O)N5CC(F)(F)C[C@H]5C#N)c4c3)cc12.[177Lu+3]` (stereo partly shown) [[^177Lu]Lu-DOTAGA.Glu.(FAPI)2], for which, under setting [2], the dissociation constant (Kd) was 700 pM and 680 pM; the Bmax is 0.4 ± 0.02 nM and 0.36 ± 0.02 nM.
